Source: PubChem BioAssay (NCI)
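GI50 marks 50% less growth. TGI denotes the concentration required for complete inhibition of growth.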

Key:
Test in all cases: NCI anticancer screen, dose series, 384-well format
[1] = tested on: OVCAR-5 ovarian
[2] = tested on: NCI-H460 NSCLC
[3] = tested on: HT29 colon
[4] = tested on: MDA-MB-435 melanoma
[5] = tested on: SK-MEL-28 melanoma
[6] = tested on: UACC-62 melanoma
[7] = tested on: A498 renal
[8] = tested on: RPMI-8226 leukemia
[9] = tested on: HOP-92 NSCLC
[10] = tested on: SF-295 CNS
[11] = tested on: EKVX NSCLC
[12] = tested on: SK-OV-3 ovarian
[13] = tested on: MCF7 breast

COC1(C(=O)N2Cc3nc(Cl)nc(N[C@H](C)c4cc(N)cc(C(F)(F)F)c4)c3C2)CCOCC1 gave a GI50 [1] of 23.2 µM, a TGI [1] of 75 µM and a GI50 [2] of 16.4 µM. It also gave a TGI [2] of 31 µM, a GI50 [3] of 18.2 µM and a TGI [3] of 35.9 µM. The GI50 [4] was 17.9 µM, the TGI [4] was 36.9 µM and the GI50 [5] was 18.5 µM. It also gave a TGI [5] of 34.9 µM, a GI50 [6] of 15.6 µM and a TGI [6] of 29.1 µM. It also gave a GI50 [7] of 14.1 µM, a TGI [7] of 35.3 µM and a GI50 [8] of 10.6 µM. It also gave a TGI [8] of 22.5 µM, a GI50 [9] of 0.646 µM and a TGI [9] of 18.6 µM. For the same compound, the GI50 [10] was 15.1 µM, the TGI [10] was 32.5 µM and the GI50 [11] was 12.8 µM. For the same compound, the TGI [11] was 38.8 µM, the GI50 [12] was 18.9 µM and the TGI [12] was 40.3 µM. For the same compound, the GI50 [13] was 13.4 µM and the TGI [13] was 30 µM.
